Paper PMC4235344, “A single-component multidrug transporter of the major facilitator superfamily is part of a network that protects E scherichia coli from bile salt stress” (Molecular Microbiology, 2014)

Target: T1, MdtM (Escherichia coli, UniProt P39386)
T1 construct: full-length wild-type, pBAD/Myc-His A vector (pMdtM), homologously overexpressed in E. coli LMG194, purified in DDM
Assay: intrinsic Trp fluorescence quenching
Assay type: binding

T1 sequence (P39386 whole entry): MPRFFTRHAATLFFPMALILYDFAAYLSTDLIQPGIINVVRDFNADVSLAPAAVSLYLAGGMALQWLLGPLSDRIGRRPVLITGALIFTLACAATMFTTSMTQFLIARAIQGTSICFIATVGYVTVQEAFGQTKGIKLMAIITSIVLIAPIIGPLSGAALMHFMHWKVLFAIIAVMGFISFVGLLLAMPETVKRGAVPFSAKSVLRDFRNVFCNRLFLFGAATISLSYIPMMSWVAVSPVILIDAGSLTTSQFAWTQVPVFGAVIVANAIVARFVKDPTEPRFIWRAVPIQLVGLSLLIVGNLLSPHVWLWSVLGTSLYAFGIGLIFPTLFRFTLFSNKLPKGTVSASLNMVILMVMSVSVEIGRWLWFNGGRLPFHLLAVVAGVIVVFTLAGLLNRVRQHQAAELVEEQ

Row | SMILES | Kd
1 | C[C@H](CCC(=O)O)[C@H]1CC[C@H]2[C@@H]3CC[C@@H]4C[C@H](O)CC[C@]4(C)[C@H]3C[C@H](O)[C@]12C [deoxycholate] | 176 ± 20 µM
2 | C[C@H](CCC(=O)O)[C@H]1CC[C@H]2[C@@H]3[C@H](O)C[C@@H]4C[C@H](O)CC[C@]4(C)[C@H]3C[C@H](O)[C@]12C [cholate] | 24 ± 6 µM
